Data taken from publication PMC6458983 (Cancer Chemotherapy and Pharmacology, 2019).
Read-outs that look alike come from different tables or passages of the source.

How the values were obtained:
[1] = Predicted gefitinib exposure (empirical Bayesian estimates), inter- and intra-patient comparison with/without ILD; type: in vivo, Japanese patients with NSCLC; details: human, plasma, oral, 250 mg
Description: (§1) When estimating the exposure at first dosing and at steady state, time-dependent pharmacokinetics were not assumed. Thus, both exposures at first dosing and steady state can be theoretically derived if at least one plasma concentration at either first dosing or steady state is available. Individual exposures were predicted based on patients’ dosing history, assuming steady state at 144 h after the first dosing. […] Serum concentration of AGP were likewise determined at first dosing and at steady state.
AUC0–24 and Cmax were chosen as exposure metrics.

[2] = tested on: Japanese patients with NSCLC
Description: Area under the plasma concentration–time curve from 0 to 24 h (AUC0–24) and maximum plasma concentrations (Cmax) were calculated using empirical Bayesian estimates of pharmacokinetic parameters in the final population pharmacokinetic model. AUC0–24 and Cmax were chosen as exposure metrics. The incidence of ILD was summarized for four exposure levels, defined using exposure quartiles after a single dose and at steady state, respectively.
After a single dose, predicted pharmacokinetic values were available for all 51 patients with ILD and all 285 patients without ILD. […] Each pharmacokinetic parameter was quartiled separately.

[3] = Population pharmacokinetic analysis of gefitinib plasma concentrations (NONMEM, one-compartment model); type: in vivo, Japanese patients with NSCLC
Description: Six blood samples were taken from each patient at 1–3, 3–8, and 24 h after first treatment dosing (Day 1) and at steady state (Days 10–15). In addition, blood samples were taken from each patient with ILD, if possible, when ILD developed. […] In total, data for 1891 plasma concentrations taken from 336 patients were used for population pharmacokinetic modeling.
as §1
The population pharmacokinetic analysis was performed using the non-linear mixed-effect modeling (NONMEM) program version V level 1.1 with the PREDPP library and the NM-TRAN pre-processor (GloboMax LLC, Hanover, MD, USA). Full details of the population pharmacokinetic model development and analysis are described in the Online Resource.
The population pharmacokinetic analysis was performed using the NONMEM program version V level 1.1 with the PREDPP library and the NM-TRAN pre-processor (GloboMax LLC, Hanover, MD).
Following preliminary modeling to build a base model, log-transformed plasma concentrations were used for the analysis, and a one-compartment model after first-order absorption with lag-time was selected as the structural model. The first-order method was adopted as an approximation in integral of marginal likelihood. The inter-individual variability on pharmacokinetic parameters was described using an exponential error model, and the intra-individual variability on log-transformed plasma concentration was described using an additive error model.
The covariate model was developed based on the forward addition method and the backward deletion method. Continuous covariates such as body weight, age, sex, α1-acid glycoprotein (AGP), serum albumin, total protein, aspartate aminotransferase, alanine aminotransferase, alkaline phosphatase, total bilirubin, and creatinine clearance were tested using a power model centered on the mean value.
Categorical covariates included were age group (<65 years or ≥65 years), concomitant use of cytochrome P450 3A4 (CYP3A4) inducers, concomitant use of CYP3A4 inhibitors, and concomitant use of proton pump inhibitors and/or H2 antagonists. In addition, interstitial lung disease (ILD) status (i.e. “patients with ILD” vs “patients without ILD”) and ILD period (i.e. “at times other than ILD development” vs “at the time of ILD development”) were tested using a productive multiplicative model with the discrete variable (0 or 1).
χ^2 tests with one degree of freedom based on the objective function value (OFV) in NONMEM, which corresponds to -2-fold of log-likelihood, were used for developing the covariate model, and the adopted statistically significant levels were p=0.05 (ΔOFV=3.84) and p=0.001 (ΔOFV=10.83) when a covariate was included and excluded from the pharmacokinetic model, respectively.
Goodness-of-fit plots were used for diagnosis of the final model. The robustness of the final model was evaluated by a randomized non-stratified bootstrap technique with 200 resampling datasets, and model predictability was examined by visual predictive check.

[4] = tested on: CYP3A4; details: in vitro and in vivo studies; cited from earlier work
[5] = sustained elevation of gastric pH; cited from earlier work
[6] = cited from earlier work
[7] = tested on: human AGP; details: cited from earlier work
[8] = tested on: Japanese patients with NSCLC; experiment: Multivariate logistic regression of ILD with gefitinib exposure and other risk factors; type: in vivo; details: Analysis 1 (PK parameter AUC0–24, single dose)
Description: Patients with and without ILD, in whom pharmacokinetic measurements were available, were included in this analysis. […] A multivariate logistic regression model was used in this analysis; the analysis was performed using SAS version 9.3. […] In addition, the interaction of smoking history and normal lung coverage, and the interaction of the severity of pre-existing ILD and normal lung coverage were also studied. In addition, pharmacokinetic exposure parameters were divided into four quartiles (see “Results”) and investigated as risk factors. For association with ILD risk, the mid-1, mid-2, and high-exposure groups were compared with the low-exposure group.

[9] = after a single dose, third-quartile cut-off of predicted exposure

- Cmax ([1]; after the first dosing, patients with ILD, value printed in box plot Fig. 1a, read-out: Cmax): 214 ng/mL
- Cmax ([1]; after the first dosing, patients without ILD, value printed in box plot Fig. 1a, read-out: Cmax): 157 ng/mL
- AUC(0-t) ([1]; after the first dosing, patients with ILD, Fig. 1b, read-out: AUC0-24): 3970 ng·h/mL
- AUC(0-t) ([1]; after the first dosing, patients without ILD, Fig. 1b, read-out: AUC0-24): 2990 ng·h/mL
- Cmax ([1]; intra-patient (n = 19), at the time of ILD development, Fig. 2a, read-out: Cmax): 679 ng/mL
- AUC(0-t) ([1]; intra-patient (n = 19), at the time of ILD development, Fig. 2b, read-out: AUC0-24): 13600 ng·h/mL
- Cmax ([1]; intra-patient (n = 19), at time other than ILD development (steady state), Fig. 2a, read-out: Cmax): 517 ng/mL
- AUC(0-t) ([1]; intra-patient (n = 19), at time other than ILD development (steady state), Fig. 2b, read-out: AUC0-24): 10100 ng·h/mL
- Cmax ([1]; steady state, 250 mg once daily, patients without ILD, Fig. 1d, read-out: Cmax,ss): 434 ng/mL
- AUC(0-t) ([1]; steady state, patients with ILD, Fig. 1e, read-out: AUC0-24,SS): 10600 ng·h/mL
- Cmax ([1]; steady state, patients with ILD, Fig. 1d, read-out: Cmax,ss): 517 ng/mL
- AUC(0-t) ([1]; steady state, patients without ILD, Fig. 1e, read-out: AUC0-24,SS): 8830 ng·h/mL
- Proportion of patients with ILD, by AUC quartile ([2]; after a single dose, AUC0–24 Quartile 1): 11.9%
- Proportion of patients with ILD, by AUC quartile ([2]; after a single dose, AUC0–24 Quartile 2): 8.3%
- Proportion of patients with ILD, by AUC quartile ([2]; after a single dose, AUC0–24 Quartile 3): 8.3%
- Proportion of patients with ILD, by AUC quartile ([2]; after a single dose, AUC0–24 Quartile 4): 32.1%
- Proportion of patients with ILD, by Cmax quartile ([2]; after a single dose, Cmax Quartile 1): 11.9%
- Proportion of patients with ILD, by Cmax quartile ([2]; after a single dose, Cmax Quartile 2): 8.3%
- Proportion of patients with ILD, by Cmax quartile ([2]; after a single dose, Cmax Quartile 3): 9.5%
- Proportion of patients with ILD, by Cmax quartile ([2]; after a single dose, Cmax Quartile 4): 31.0%
- AUC0–24 lower than or equal to the third quartile [2, 9]: ≤ 3855 ng·h/mL
- Cmax lower than or equal to the third quartile [2, 9]: ≤ 207 ng/mL
- Proportion of patients with ILD, by AUC quartile ([2]; at steady state, AUC0–24,ss Quartile 1): 5.1%
- Proportion of patients with ILD, by AUC quartile ([2]; at steady state, AUC0–24,ss Quartile 2): 7.8%
- Proportion of patients with ILD, by AUC quartile ([2]; at steady state, AUC0–24,ss Quartile 3): 15.4%
- Proportion of patients with ILD, by AUC quartile ([2]; at steady state, AUC0–24,ss Quartile 4): 14.3%
- Proportion of patients with ILD, by Cmax quartile ([2]; at steady state, Cmax,ss Quartile 1): 6.4%
- Proportion of patients with ILD, by Cmax quartile ([2]; at steady state, Cmax,ss Quartile 2): 6.5%
- Proportion of patients with ILD, by Cmax quartile ([2]; at steady state, Cmax,ss Quartile 3): 17.9%
- Proportion of patients with ILD, by Cmax quartile ([2]; at steady state, Cmax,ss Quartile 4): 11.7%
- decrease of CL/F ([3]; at the time of ILD development, population pharmacokinetic analysis): 25.7%
- θ3 ([3]; base in CL/F equation (AGE ≥ 65 term, CL/F declined in elderly)): 0.759
- θ6 ([3]; base in CL/F equation (PERI, at the time of ILD diagnosis)): 0.743
- θ1 ([3]; typical value term of the CL/F equation (equation is drawing C00001), population estimate): 28.6
- θ7 ([3]; typical value term of the V/F equation (equation is drawing C00002), population estimate): 1540
- OR estimate (95% CI) for acute ILD: Duration of NSCLC ≥1 vs <0.5 years [8]: 0.37 (0.14–0.95)
SMILES: COc1cc2ncnc(Nc3ccc(F)c(Cl)c3)c2cc1OCCCN1CCOCC1 [gefitinib]
- θ5 ([3]; exponent in CL/F equation (body weight term)): 0.503
- enzyme involved in the metabolic clearance [4]: CYP3A4 is the major enzyme
- decrease of bioavailability [5]: 47%
- increase of AUC of gefitinib ([6]; gefitinib 250 mg in the presence of itraconazole): 78%
- increase of AUC of gefitinib ([6]; gefitinib 500 mg in the presence of itraconazole): 61%
- binding to human AGP ([7]; at 0.05 mg/mL): 83.0%
- binding to human AGP ([7]; at 8 mg/mL): 68.5%
